Reference: ChEMBL document CHEMBL1806435, “Discovery of bacterial NAD+-dependent DNA ligase inhibitors: optimization of antibacterial activity” (Bioorg Med Chem Lett, 2011)
In brackets after ≈: the same amount, converted by molar mass.

Tests used:
[1] = system: Streptococcus pneumoniae; experiment: Antibacterial activity against Streptococcus pneumoniae; type: functional
[2] = Apparent permeability from apical to basolateral side in human Caco2 cells; type: ADME, cell-based; details: Caco-2
[3] = Inhibition of Streptococcus pneumoniae LigA by FRET-based assay
[4] = Inhibition of Staphylococcus aureus LigA by FRET-based assay
[5] = system: Staphylococcus aureus; experiment: Antibacterial activity against Staphylococcus aureus; type: functional
[6] = Lipophilicity, log D of the compound in octanol buffer at pH 7.4 by shake flask method; type: physicochemical
[7] = Equilibrium solubility of the compound; type: physicochemical
[8] = Plasma protein binding in human assessed as fraction unbound by equilibrium dialysis method; type: ADME, cell-free
[9] = target: DNA ligase 1 (Homo sapiens, UniProt P18858); experiment: Inhibition of human DNA Ligase I by FRET-based assay
DNA ligase 1, sequence (P18858 whole entry): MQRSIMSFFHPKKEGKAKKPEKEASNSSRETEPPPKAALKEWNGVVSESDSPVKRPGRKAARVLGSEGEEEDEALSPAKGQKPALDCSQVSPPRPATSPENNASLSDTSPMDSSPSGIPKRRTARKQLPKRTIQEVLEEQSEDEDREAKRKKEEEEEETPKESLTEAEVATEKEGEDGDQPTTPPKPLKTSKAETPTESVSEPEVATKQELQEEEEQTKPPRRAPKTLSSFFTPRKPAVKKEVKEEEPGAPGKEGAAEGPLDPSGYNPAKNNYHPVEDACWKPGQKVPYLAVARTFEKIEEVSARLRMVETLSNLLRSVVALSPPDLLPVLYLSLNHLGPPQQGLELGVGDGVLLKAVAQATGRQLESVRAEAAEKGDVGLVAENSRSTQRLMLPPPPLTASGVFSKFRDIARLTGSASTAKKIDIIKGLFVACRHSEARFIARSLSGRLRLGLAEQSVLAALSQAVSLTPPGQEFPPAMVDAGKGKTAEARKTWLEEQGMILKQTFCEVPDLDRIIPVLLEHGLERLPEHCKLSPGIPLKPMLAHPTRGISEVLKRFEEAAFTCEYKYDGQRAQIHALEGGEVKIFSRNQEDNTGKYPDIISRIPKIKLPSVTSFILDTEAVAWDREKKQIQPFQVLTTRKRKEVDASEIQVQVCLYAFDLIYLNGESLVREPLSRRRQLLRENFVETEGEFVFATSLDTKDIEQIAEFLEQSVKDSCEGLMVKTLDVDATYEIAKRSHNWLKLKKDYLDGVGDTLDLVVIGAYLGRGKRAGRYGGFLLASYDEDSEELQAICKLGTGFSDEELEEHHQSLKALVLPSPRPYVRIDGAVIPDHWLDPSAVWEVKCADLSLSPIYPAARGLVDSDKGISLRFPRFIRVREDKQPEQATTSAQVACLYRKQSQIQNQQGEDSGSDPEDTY

[10] = system: Haemophilus influenzae; experiment: Antibacterial activity against efflux pump-deficient Haemophilus influenzae; type: functional
[11] = Inhibition of Escherichia coli LigA by FRET-based assay
[12] = Inhibition of […] LigA by FRET-based assay; design: species or system Haemophilus influenzae

Compound	MIC [1]	Papp A→B [2]	IC50 [3]	IC50 [4]	MIC [5]	logD [6]	solubility thermodynamic [7]	fraction unbound [8]	IC50 [9]	MIC [10]	IC50 [11]	IC50 [12]
C[C@H]1O[C@@H](n2cnc3c(N)nc(OC4CCCC4)nc32)[C@H](O)[C@@H]1O	2 µg/mL (≈ 5.96 µM)	7.26 ×10⁻⁶ cm/s	80 nM	120 nM	8 µg/mL (≈ 23.9 µM)							
C[C@H]1O[C@@H](n2cnc3c(N)nc(OCC4CC45CC5)nc32)[C@H](O)[C@H]1Cl (some centres undefined)	0.5 µg/mL (≈ 1.37 µM)		20 nM	30 nM	1 µg/mL (≈ 2.73 µM)	3.7	21 µM (≈ 7.68 µg/mL)	0.04				
Nc1nc(OC2CCCC2)nc2c1ncn2[C@@H]1O[C@H](CO)[C@@H](O)[C@H]1O	16 µg/mL (≈ 45.5 µM)		150 nM	430 nM	64 µg/mL (≈ 182 µM)			0.66				
[N-]=[N+]=N[C@@H]1[C@@H](O)[C@H](n2cnc3c(N)nc(OC4CCCC4)nc32)O[C@@H]1CF	0.5 µg/mL (≈ 1.32 µM)		70 nM	90 nM	8 µg/mL (≈ 21.1 µM)	2.65		0.19				
C[C@H]1O[C@@H](n2cnc3c(N)nc(OCC4CC45CC5)nc32)[C@H](O)[C@@H]1O (some centres undefined)	1 µg/mL (≈ 2.88 µM)		40 nM	60 nM	2 µg/mL (≈ 5.76 µM)	1.78	801 µM (≈ 278 µg/mL)	0.25				
CCCCSc1nc(N)c2ncn([C@@H]3O[C@H](C)[C@@H](O)[C@H]3O)c2n1	8 µg/mL (≈ 23.6 µM)		130 nM	170 nM	64 µg/mL (≈ 189 µM)							
CCCCSc1nc(N)c2ncn([C@@H]3O[C@H](CO)[C@@H](O)[C@H]3O)c2n1	32 µg/mL (≈ 90 µM)		140 nM	80 nM	> 64 µg/mL			0.003	> 200000 nM	32 µg/mL (≈ 90 µM)	1270 nM	510 nM
Nc1nc(OCC2(CO)CC2)nc2c1ncn2[C@@H]1O[C@H](CF)[C@@H](O)[C@H]1O	> 64 µg/mL		400 nM	370 nM	> 64 µg/mL							
Nc1nc(OC2CCCC2)nc2c1ncn2[C@@H]1O[C@H](CF)[C@@H](O)[C@H]1O	4 µg/mL (≈ 11.3 µM)		120 nM	120 nM	16 µg/mL (≈ 45.3 µM)							
Nc1nc(OCC2CCC2)nc2c1ncn2[C@@H]1O[C@H](CF)[C@@H](O)[C@H]1O	2 µg/mL (≈ 5.66 µM)		50 nM	60 nM	8 µg/mL (≈ 22.6 µM)							
C[C@H]1O[C@@H](n2cnc3c(N)nc(O[C@H]4CC[C@H](C)CC4)nc32)[C@H](O)[C@@H]1O	1 µg/mL (≈ 2.75 µM)		50 nM	160 nM	2 µg/mL (≈ 5.5 µM)	2.35	934 µM (≈ 339 µg/mL)	0.27				
C[C@H]1O[C@@H](n2cnc3c(N)nc(OC4CC5CC5C4)nc32)[C@H](O)[C@@H]1O (some centres undefined)	2 µg/mL (≈ 5.76 µM)		60 nM	130 nM	4 µg/mL (≈ 11.5 µM)							
C[C@H]1O[C@@H](n2cnc3c(N)nc(OC4CCCC4)nc32)[C@H](O)[C@H]1Cl	4 µg/mL (≈ 11.3 µM)		40 nM	40 nM	8 µg/mL (≈ 22.6 µM)	3.18	304 µM (≈ 108 µg/mL)					
Nc1nc(OCc2nccs2)nc2c1ncn2[C@@H]1O[C@H](CF)[C@@H](O)[C@H]1O	64 µg/mL (≈ 167 µM)		870 nM	910 nM	> 64 µg/mL							
Nc1nc(SC2CCCC2)nc2c1ncn2[C@@H]1O[C@H](CO)[C@@H](O)[C@H]1O	16 µg/mL (≈ 43.5 µM)		440 nM	380 nM	32 µg/mL (≈ 87.1 µM)							
Nc1nc(OC2CCCC2)nc2c1ncn2[C@@H]1O[C@H](CO)[C@H](Cl)[C@H]1O	8 µg/mL (≈ 21.6 µM)		80 nM	110 nM	8 µg/mL (≈ 21.6 µM)							
C[C@H]1O[C@@H](n2cnc3c(N)nc(Oc4ccccc4)nc32)[C@H](O)[C@@H]1O	64 µg/mL (≈ 186 µM)		2670 nM	140 nM	64 µg/mL (≈ 186 µM)							
C[C@H]1O[C@@H](n2cnc3c(N)nc(OC4CCCC4)nc32)[C@H](O)[C@@H]1OCc1ccc(Cl)c(Cl)c1	0.5 µg/mL (≈ 1.01 µM)		< 10 nM	130 nM	8 µg/mL (≈ 16.2 µM)	> 3.5	< 1 µM					
